# Experiments:
# [1] = test system: Leishmania donovani; assay: Antileishmanial activity against Leishmania donovani HU3 infected in po dosed BALB/c mouse administered for 5 consecutive days; assay type: functional
# [2] = test system: Leishmania donovani; assay: Antileishmanial activity against Leishmania donovani LV9 amastigotes infected in BALB/c mouse peritoneal macrophages after 72 hrs by resazurin-based fluorescence assay; assay type: functional; conditions: LV9, 72 h
# [3] = test system: Leishmania donovani; assay: Antileishmanial activity against Leishmania donovani LV9 promastigotes after 72 hrs by resazurin-based fluorescence assay; assay type: functional; conditions: LV9, 72 h
# [4] = test system: Mycobacterium tuberculosis; assay: Antimycobacterial activity against Mycobacterium tuberculosis; assay type: functional
# [5] = test system: Trypanosoma cruzi; assay: Antiparasitic activity against Trypanosoma cruzi infected in human assessed as cure rate under chronic condition; assay type: functional
# [6] = test system: Trypanosoma cruzi; assay: Antiparasitic activity against Trypanosoma cruzi infected in human assessed as cure rate under acute condition; assay type: functional
# [7] = test system: Leishmania donovani; assay: Antileishmanial activity against Leishmania donovani LV9 amastigotes infected in mouse peritoneal macrophages after 72 hrs; assay type: functional; conditions: LV9, 72 h
# [8] = test system: Leishmania donovani; assay: Antileishmanial activity against Leishmania donovani LV9 amastigotes infected in po dosed BALB/c mouse assessed as reduction in parasite burden dosed on day 7 post-infection administered bid for 5 to 10 days; assay type: functional
# [9] = test system: Leishmania donovani; assay: Antileishmanial activity against Leishmania donovani LV9 amastigotes infected in BALB/c mouse assessed as reduction in parasite burden at 200 mg/kg, po administered qd for 5 days; assay type: functional; conditions: 120 h
# [10] = test system: Entamoeba histolytica; assay: Antiparasitic activity against Entamoeba histolytica clinical isolate after 24 hrs under anaerobic cinditions; assay type: functional
# [11] = test system: Trichomonas vaginalis; assay: Antiparasitic activity against Trichomonas vaginalis BRIS/92/STDL/B7268 clinical isolate after 48 hrs under anaerobic condition; assay type: functional
# [12] = test system: Trichomonas vaginalis; assay: Antiparasitic activity against Trichomonas vaginalis clinical isolate after 48 hrs under aerobic conditions by inverted phase contrast microscopic analysis; assay type: functional
# [13] = test system: Giardia intestinalis; assay: In vivo antiparasitic activity against Giardia lamblia infected in human at 250 mg administered 2 to 3 times per day daily for 5 to 10 days; assay type: functional, Giardia duodenalis
# [14] = test system: Giardia intestinalis; assay: In vivo antiparasitic activity against Giardia lamblia infected in human at 2000 to 2400 mg administered as single dose; assay type: functional, Giardia duodenalis
# [15] = Drug excretion in po dosed human feces; assay type: ADME, organism-based; conditions: in vivo
# [16] = Drug excretion in po dosed human watery feces; assay type: ADME, organism-based; conditions: in vivo
# [17] = test system: Clostridioides difficile; assay: Antibacterial activity against Clostridium difficile; assay type: functional
# [18] = test system: Helicobacter pylori; assay: Antibacterial activity against susceptible Helicobacter pylori; assay type: functional
# [19] = test system: Helicobacter pylori; assay: Antibacterial activity against resistant Helicobacter pylori; assay type: functional
# [20] = test system: Helicobacter pylori; assay: Antibacterial activity against Helicobacter pylori after 72 hrs by E-test; assay type: functional
# [21] = test system: Bacteroides fragilis; assay: Antibacterial activity against Bacteroides fragilis ATCC 23745 after 24 hrs; assay type: functional; conditions: ATCC 23745, 24 h
# [22] = test system: Giardia intestinalis; assay: In vivo antiparasitic activity against Giardia lamblia infected in human assessed as median efficacy at 2 g administered in adults as single dose; assay type: functional, Giardia duodenalis
# [23] = test system: Giardia intestinalis; assay: In vivo antiparasitic activity against Giardia lamblia infected in human assessed as median efficacy at 30 mg/kg administered in children as single dose; assay type: functional, Giardia duodenalis
# [24] = Half life in plasma (unknown origin); assay type: ADME, cell-free
# [25] = test system: Helicobacter pylori; assay: In vivo antibacterial activity against Helicobacter pylori infected in human administered bid for 7 days measured after 30 days post start of the treatment by endoscopic analysis; assay type: functional
compound,measurement,setting,value
C[C@]1(COc2ccc(OC(F)(F)F)cc2)Cn2cc([N+](=O)[O-])nc2O1,ED90,[1],3.7 mg/kg
O=[N+]([O-])c1cn2c(n1)OC[C@H](OCc1ccc(OC(F)(F)F)cc1)C2,EC50,[2],930 nM
same,EC50,[3],160 nM
same,MIC,[4],> 100 µM
O=C(Cn1ccnc1[N+](=O)[O-])NCc1ccccc1 [BENZNIDAZOLE],Activity,[5],8%
same,Activity,[6],76%
C[C@]1(COc2ccc(N3CCC(Oc4ccc(OC(F)(F)F)cc4)CC3)cc2)Cn2cc([N+](=O)[O-])nc2O1 [DELAMANID],EC50,[7],87 nM
same,ED50,[8],7.3 mg/kg
same,ED90,[8],21.5 mg/kg
Cn1c([N+](=O)[O-])cnc1COc1ccc(S(C)(=O)=O)cc1 [FEXINIDAZOLE SULFONE],EC50,[7],5300 nM
CSc1ccc(OCc2ncc([N+](=O)[O-])n2C)cc1 [FEXINIDAZOLE],inhibition in vivo at 200 mg/kg,[9],98%
Cc1ncc([N+](=O)[O-])n1CCO [METRONIDAZOLE],MIC,[10],12.5 to 25 µM
same,MLC,[11],4.25 µg/mL
same,MLC,[12],2618 µM
same,Efficacy,[13],88%
same,Efficacy,[14],48%
same,Drug excretion,[15],1.2 µg/g
same,Drug excretion,[16],9.3 µg/g
same,MIC90,[17],0.2 to 2 µg/mL
same,MIC,[18],0.25 to 2 µg/mL
same,MIC,[19],> 8 µg/mL
same,MIC,[20],≥ 256 µg/mL
CCCCCCCCCCCCCCCCOP(=O)([O-])OCC[N+](C)(C)C [MILTEFOSINE],EC50,[7],3300 nM
Cc1ncc([N+](=O)[O-])n1CC(O)CCl (centres undefined) [ORNIDAZOLE],MIC,[21],0.8 to 3.7 µM
same,Efficacy,[22],92 - 100%
Cc1ncc([N+](=O)[O-])n1CCc1ccncc1 [PANIDAZOLE],MIC,[21],0.8 to 3.7 µM
Cc1ncc([N+](=O)[O-])n1CC(C)O (centres undefined) [SECNIDAZOLE],MIC,[21],0.8 to 3.7 µM
same,Efficacy,[22],80 - 100%
same,Efficacy,[23],80 - 100%
CCS(=O)(=O)CCn1c([N+](=O)[O-])cnc1C [TINIDAZOLE],MIC,[21],0.8 to 3.7 µM
same,Efficacy,[22],92%
same,half-life,[24],12 to 14 h
same,MLC,[12],1015 µM
same,Activity,[25],>90%
